In the supplement of paper PMC10307832:

How the values were obtained:
Experiment in all cases: relative viability (nuclei count vs DMSO), 5 days (fraction); higher = more cells survive
Doxorubicin + Pemetrexed = compound: COc1cccc2c1C(=O)c1c(O)c3c(c(O)c1C2=O)C[C@@](O)(C(=O)CO)C[C@@H]3O[C@H]1C[C@H](N)[C@H](O)[C@H](C)O1 [Doxorubicin] + Nc1nc2[nH]cc(CCc3ccc(C(=O)N[C@@H](CCC(=O)O)C(=O)O)cc3)c2c(=O)[nH]1 [Pemetrexed] (partner 0.2 µM)
Method in brief: (§1)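 One day after seeding in 1536-well plates, lung cancer cell lines were dosed by pin tool. Dosing was either single-drug or a fixed anchor-drug dose plus five library-drug doses (not always all listed) in √10 steps. After 5 days, nuclei were stained in one fix-and-stain step and counted on 4× images, and relative viability is the nuclei count of treated wells over that of vehicle wells, given as the median of duplicate plates.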

Doxorubicin + OSI-027 = compound: COc1cccc2c1C(=O)c1c(O)c3c(c(O)c1C2=O)C[C@@](O)(C(=O)CO)C[C@@H]3O[C@H]1C[C@H](N)[C@H](O)[C@H](C)O1 [Doxorubicin] + COc1cccc2cc(-c3nc([C@H]4CC[C@H](C(=O)O)CC4)n4ncnc(N)c34)[nH]c12 [OSI-027] (partner 0.5 µM)
Method in brief: as §1

Doxorubicin + Lapatinib = compound: COc1cccc2c1C(=O)c1c(O)c3c(c(O)c1C2=O)C[C@@](O)(C(=O)CO)C[C@@H]3O[C@H]1C[C@H](N)[C@H](O)[C@H](C)O1 [Doxorubicin] + CS(=O)(=O)CCNCc1ccc(-c2ccc3ncnc(Nc4ccc(OCc5cccc(F)c5)c(Cl)c4)c3c2)o1 [Lapatinib] (partner 2 µM)
Method in brief: as §1

BAY61-3606 + Foretinib = compound: COC1=C(C=C(C=C1)C2=CC3=NC=CN3C(=N2)NC4=C(C=CC=N4)C(=O)N)OC [BAY61-3606] + COc1cc2c(Oc3ccc(NC(=O)C4(C(=O)Nc5ccc(F)cc5)CC4)cc3F)ccnc2cc1OCCCN1CCOCC1 [Foretinib] (partner 0.25 µM)
Method in brief: as §1

Cell Line | relative viability (Doxorubicin + Pemetrexed; first compound 0.001 µM) | relative viability (Doxorubicin + Pemetrexed; first compound 0.003162 µM) | relative viability (Doxorubicin + Pemetrexed; first compound 0.01 µM) | relative viability (Doxorubicin + Pemetrexed; first compound 0.03162 µM) | relative viability (Doxorubicin + Pemetrexed; first compound 0.1 µM) | relative viability (Doxorubicin + OSI-027; first compound 0.001 µM) | relative viability (Doxorubicin + OSI-027; first compound 0.003162 µM) | relative viability (Doxorubicin + OSI-027; first compound 0.01 µM) | relative viability (Doxorubicin + OSI-027; first compound 0.03162 µM) | relative viability (Doxorubicin + OSI-027; first compound 0.1 µM) | relative viability (Doxorubicin + Lapatinib; first compound 0.001 µM) | relative viability (Doxorubicin + Lapatinib; first compound 0.003162 µM) | relative viability (Doxorubicin + Lapatinib; first compound 0.01 µM) | relative viability (Doxorubicin + Lapatinib; first compound 0.03162 µM) | relative viability (Doxorubicin + Lapatinib; first compound 0.1 µM) | relative viability (BAY61-3606 + Foretinib; first compound 0.02 µM) | relative viability (BAY61-3606 + Foretinib; first compound 0.06325 µM) | relative viability (BAY61-3606 + Foretinib; first compound 0.2 µM) | relative viability (BAY61-3606 + Foretinib; first compound 0.6325 µM) | relative viability (BAY61-3606 + Foretinib; first compound 2 µM)
201T | 0.344 | 0.325 | 0.352 | 0.338 | 0.351 | 0.494 | 0.838 | 0.724 | 0.638 | 0.274 | 0.942 | 0.968 | 1.04 | 1.01 | 1.03 | 1.19 | 1.05 | 1.13 | 1.17 | 1.11
A549 |  |  |  |  |  |  |  |  |  |  | 0.922 | 0.954 | 0.415 | 0.0939 | 0.0714 | 1.11 | 0.989 | 0.853 | 0.969 | 0.809
A-427 | 1.08 | 1.06 | 0.929 | 0.746 | 0.429 | 0.427 | 0.506 | 0.429 | 0.43 | 0.442 | 1.1 | 0.985 | 1.06 | 1.04 | 1.02 | 1.16 | 1.01 | 1.04 | 1.24 | 0.925
ABC-1 |  |  |  |  |  | 0.431 | 0.494 | 0.424 | 0.306 | 0.32 | 1.14 | 1.54 | 0.975 | 1.07 | 1.1 | 1.19 | 0.973 | 0.971 | 1.11 | 0.907
BEN | 0.899 | 0.78 | 0.926 | 0.631 | 0.701 | 0.301 | 0.28 | 0.335 | 0.301 | 0.29 | 1.01 | 0.608 | 0.697 | 0.474 | 0.644 | 0.701 | 0.69 | 0.723 | 0.654 | 0.911
CAL-12T | 1.1 | 1.22 | 1.03 | 0.38 | 0.248 | 0.609 | 0.695 | 0.515 | 0.194 | 0.146 | 0.597 | 0.656 | 0.517 | 0.67 | 0.404 | 1.12 | 1.19 | 1 | 1.19 | 0.656
COR-L23 | 0.202 | 0.212 | 0.203 | 0.2 | 0.186 | 0.753 | 0.912 | 0.741 | 0.452 | 0.193 | 0.955 | 1.19 | 0.921 | 0.241 | 0.14 | 0.999 | 0.944 | 0.963 | 0.992 | 0.865
COR-L 105 | 0.87 | 1.2 | 1.05 | 0.808 | 0.618 | 0.71 | 0.623 | 0.556 | 0.428 | 0.34 | 0.372 | 0.358 | 0.321 | 0.287 | 0.283 | 1.32 | 1.36 | 0.884 | 1.05 | 0.605
Calu-6 |  |  |  |  |  |  |  |  |  |  | 0.959 | 1.05 | 0.678 | 0.261 | 0.221 | 0.894 | 0.905 | 0.793 | 0.773 | 0.617
ChaGo-K-1 | 0.264 | 0.254 | 0.231 | 0.259 | 0.273 | 0.587 | 0.588 | 0.63 | 0.439 | 0.398 |  |  |  |  |  | 0.868 | 0.834 | 0.93 | 0.948 | 0.788
EBC-1 |  |  |  |  |  |  |  |  |  |  | 0.236 | 0.21 | 0.22 | 0.195 | 0.181 | 0.105 | 0.0977 | 0.0899 | 0.0956 | 0.102
EKVX | 0.336 | 0.404 | 0.426 | 0.45 | 0.257 | 0.727 | 0.66 | 0.702 | 0.639 | 0.695 | 0.233 | 0.234 | 0.228 | 0.188 | 0.182 | 0.986 | 0.673 | 0.768 | 0.978 | 0.695
EMC-BAC-2 | 0.491 | 0.48 | 0.444 | 0.409 | 0.369 | 0.5 | 0.353 | 0.379 | 0.239 | 0.197 | 0.943 | 0.956 | 0.801 | 0.415 | 0.269 | 1.1 | 0.992 | 1.02 | 1.11 | 0.738
EPLC-272H | 0.365 | 0.372 | 0.377 | 0.322 | 0.298 | 0.29 | 0.275 | 0.255 | 0.272 | 0.28 | 0.918 | 0.906 | 0.919 | 0.944 | 0.989 | 0.705 | 0.6 | 0.789 | 0.694 | 0.397
H3255 | 0.526 | 0.558 | 0.559 | 0.535 | 0.523 | 0.641 | 0.517 | 0.629 | 0.581 | 0.594 | 0.261 | 0.262 | 0.247 | 0.259 | 0.228 | 0.969 | 1 | 0.841 | 0.995 | 0.829
HARA | 0.22 | 0.257 | 0.338 | 0.259 | 0.268 | 0.454 | 0.543 | 0.569 | 0.509 | 0.473 | 0.599 | 0.591 | 0.893 | 0.62 | 0.659 | 0.926 | 0.76 | 0.832 | 0.887 | 0.631
HCC-15 | 0.239 | 0.215 | 0.228 | 0.205 | 0.205 |  | 0.677 | 0.635 | 0.284 | 0.136 | 0.661 | 0.91 | 0.657 | 0.563 | 0.552 | 0.99 | 0.981 | 0.963 | 1.05 | 0.83
HCC-44 | 0.625 | 0.698 | 0.625 | 0.685 | 0.63 | 0.35 | 0.575 | 0.63 | 0.381 | 0.322 | 0.988 | 1.02 | 0.954 | 0.979 | 0.815 |  |  |  |  | 
